Values quoted from earlier work as cited in publication PMC6736360, “P-Glycoprotein–Mediated Efflux Reduces the In Vivo Efficacy of a Therapeutic Targeting the Gastrointestinal Parasite Cryptosporidium” (The Journal of Infectious Diseases, 2019).

Tested on: C. parvum
Set-up: method as in PMID 28329187
Details: previously published study; cited from earlier work

CCOc1ccc2cc(-c3nn(CC4CCN(C)CC4)c4ncnc(N)c34)ccc2n1 [BKI1369]
C. parvum reduction in mouse model of cryptosporidiosis: > 2 log
